Measurements taken from patent US20240010679A1, “ANTIN[…] AND USES THEREOF” (THE UNIVERSITY OF BRITISH COLUMBIA, priority 2020, published 2024).
Values after ≈ are worked out from the molar mass of the structure shown. Values joined by “and” are separate entries in the source; they are usually repeats but may differ in a detail not shown here. Identical values can stand only once. “Also recorded” adds a separate entry of the source. Like-named read-outs stand apart in the source and are kept apart here.

Key:
Plasma stability assay = assay type: in vitro ADME, mouse; conditions: for remaining at 1 h, 0.315 mmol/L: mouse plasma, 37° C., read-out: Intact peptide after 1 h in plasma
Experimental: (§1) Peptides (1.5 g/L) dissolved in saline/TWEEN 80/DMSO (90:5:5, v/v) were mixed with mouse plasma or human cerebrospinal fluid, respectively, to a final concentration of 0.315 mmol/L and incubated in a thermomixer (37° C., 750 rpm) Aliquots (45 μL) were mixed with aqueous acetonitrile (90%, v/v, 300 μL) containing formic acid (FA, 0.1%, v/v) and incubated on ice (30 min). After two centrifugation steps (12,000×g, 5 min), the supernatant (300 μL) was diluted in water (900 μL), dried by lyophilization, reconstituted in aqueous acetonitrile (4.5%, v/v) containing FA (0.1%, v/v), stored at −20° C., and analyzed with reverse-phase chromatography (RPC) on a C8-column (1 mm×150 mm) with a linear aqueous acetonitrile gradient typically from 5 to 95% eluent B in 15 min (eluent A: 0.1% (v/v) aqueous FA; eluent B: 90% aqueous acetonitrile containing 0.1% (v/v) FA. The RPC was coupled on-line to a UV detector measuring the absorbance at 214 nm and a mass spectrometer (MS) for peak identification. Peptide quantities were estimated using peak areas of the UV signal relative to the initial peak areas (t=0).

human DOR = human DOR (Homo sapiens, UniProt P41143); conditions: relative scintillation compared to Leu-ENK at 6 nmol/L, [3H]DADLE displacement, mean of duplicates
Experimental: Binding studies were performed by Eurofins Scientific (Cereb, France). Briefly, COS-1 cells transfected with plasmids encoding human DOR (Gene ID: 4985) were grown in Dulbecco's modified Eagle's medium with 10% fetal calf serum and scraped from plates. Membranes were prepared using a Dounce homogenizer and stored at −80° C. until used. Membranes (40 μg protein/tube) were suspended in Tris-HCl, pH 7.4, for 2 h at 25° C., rapidly filtered on 0.1% polyethylenimine-pretreated GF/B filters and washed with the same cold Tris buffer (3×) using a Brandel cell harvester. […] Nonspecific binding was determined in the presence of naltrexone (10 μmol/L).

female CD-1 mice [1] = assay: Respiratory rate assay; conditions: s.c.; for breathing depression: KK-103 13 mg/kg, morphine 10 mg/kg, FIG. 10C
Experimental: The respiratory rate was assessed in awake mice lightly restrained in a well-ventilated 50 mL falcon tube with a darkened tip. Prior to the drug treatment, each animal was habituated in the tube for 30 min. The falcon tube was secured onto a stand facing lengthwise to a video camera. […] Animals were recorded at selected time points for 10 min to measure the respiration rate.

[2] = tested on: human liver microsome enzymes; assay: Inhibition of human liver microsome enzymes; assay type: in vitro ADME
[3] = Plasma and brain concentrations after injection (UPLC); assay type: in vivo; conditions: female, CD-1, mouse; for tissue level at time at 2 h: 2 h after s.c. injection; for half-life: 50 mg/kg, read-out: elimination half-life
Experimental: Blood collection from mice was performed by saphenous vein punctuation (volume withdrawn <7 mL/kg) followed by a cardiac puncture later, allowing for 2 sampling time points per animal with a minimum sampling interval of 50 min. Cardiac puncture was an experimental endpoint after which animals were euthanized using isoflurane followed by cervical dislocation. Blood samples were collected in EDTA coated collection tubes and chilled on ice immediately after collection. Blood plasma was separated from whole blood by centrifugation at 2.000 g for 7 min and carefully removed from the cell pellet. Blood plasma samples were immediately frozen on dry ice and stored at −80 C until further analysis.
Samples for liquid chromatography-mass spectrometry analysis were prepared by acetonitrile protein precipitation. Therefore, 50 μL of plasma was combined with 300 μL ice cold 90% acetonitrile containing 0.1% formic acid, briefly vortexed and put on ice for 30 min. After that samples were centrifuged at 4 C for 5 min (>12 k rpm) and supernatant (325 μL) transferred in a new tube. The previous centrifugation step was repeated and a final volume of 305 μL of the supernatant transferred into a new 1.5 mL tube. Water (800 μL) was added to samples after which they were frozen and lyophilized. The dried samples were resolubilized in 50 μL 4.5% acetonitrile, 0.1% formic acid in water, vortexed (1 min), sonicated (5 min), vortexed (1 min) and centrifuged for 5 min (>12 k rpm). Samples were measured in an ACQUITY UPLC H-Class chromatography system (Waters, Milford, MA) and a sample volume of 10 μL was injected onto the reverse phase column.
An ACQUITY UPLC H-Class chromatography system (Waters, Milford, MA) coupled on-line to a photodiode array detector (absorbance recorded at 214 nm, Waters) and to the electrospray ionization source on a mass spectrometer (QDa detector, Waters) operated in the positive ion mode was used. Separation relied on a BEH-C18 column (inner diameter: 1.1 mm; length: 50 mm; particle size: 1.7 μm, Waters) at a flow rate of 0.1 mL/min using a linear aqueous acetonitrile gradient in the presence of FA (0.1%, v/v).
Ionization was carried out at a source temperature of 450° C. using a cone voltage of 10 V and a capillary voltage of 1.5 kV. Mass spectra were typically acquired for an m/z range from 50 to 1250 at a sampling rate of 2 points per second. Quantities of the peptide were determined based on a calibration curve of the analyte in mouse plasma and the peak areas of the UV signal at 214 nm as well as mass spectrometry by detecting the singly charged molecular ions.

female CD1 mice [4] = assay: Toxicity, highest deliverable single dose; assay type: in vivo, mouse; conditions: single s.c. dose
Experimental: Animals were monitored and evaluated every 30 min. After 3 h, the time of maximal antinociceptive effect, animals were euthanized.

[5] = Solubility in injection vehicle; assay type: physicochemical; conditions: normal saline/TWEEN 80 (9/1, v/v) injection vehicle
female CD1 mice [6] = assay: Dependence test (naloxone-induced jumps); conditions: twice daily s.c., KK-103 13 mg/kg, morphine 10 mg/kg; naloxone 4 mg/kg i.p., first 10 min
CSF stability assay = assay type: in vitro ADME, human; conditions: 5 h of incubation
Experimental: as §1

[7] = Stability in the presence of human liver microsomes; assay type: in vitro ADME; conditions: after 1 h, read-out: drug degradation in the presence of human liver microsomes
female CD-1 mice [8] = assay: Open field test; conditions: 15 mg/kg s.c.
Source text: (§2) Mice were allowed an acclimatization period of at least one week in the animal facility before experiments.

female CD-1 mice [9] = assay: Formalin foot assay; assay type: in vivo, mouse; conditions: s.c.
Experimental: as §2
On the day of the experiment, mice were acclimatized to the experimental setup by putting them in darkened, non-transparent plexiglas cylinders (height, 20 cm; diameter, 9 cm) placed on a glass plane for 2 h. […] After successful injection, mice were immediately placed into cylinders and their behavior was monitored for 1 h. […] The accumulated licking and biting time of each animal was determined and recorded in 5 min bins. The total response time was plotted as early phase 1 from 0 to 5 min, and late phase 2 from 20 to 40 min after formalin injection.

female CD1 mice [10] = conditions: mouse, in vivo; cited from earlier work

Sequence of human DOR (P41143 whole entry): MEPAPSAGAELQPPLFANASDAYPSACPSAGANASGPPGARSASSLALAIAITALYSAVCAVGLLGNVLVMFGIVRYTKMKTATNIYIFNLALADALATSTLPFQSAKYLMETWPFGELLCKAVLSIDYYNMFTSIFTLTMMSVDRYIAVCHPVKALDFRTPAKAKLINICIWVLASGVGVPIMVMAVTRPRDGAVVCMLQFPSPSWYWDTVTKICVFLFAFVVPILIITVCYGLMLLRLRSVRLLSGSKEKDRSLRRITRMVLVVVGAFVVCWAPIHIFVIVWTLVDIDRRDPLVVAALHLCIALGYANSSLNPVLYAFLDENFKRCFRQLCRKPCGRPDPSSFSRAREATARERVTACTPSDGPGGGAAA

COC(=O)[C@H](CC(C)C)NC(=O)[C@H](Cc1ccccc1)NC(=O)CNC(=O)CNC(=O)[C@H](Cc1ccc(O)cc1)NC(C)=O [KK-14]
remaining at 1 h, 0.315 mmol/L (Plasma stability assay): 82 ± 3%
Relative Binding to DOR (human DOR): 38%

COC(=O)[C@H](CC(C)C)NC(=O)[C@H](Cc1ccccc1)NC(=O)CNC(=O)CNC(=O)[C@H](Cc1ccc(O)cc1)NC(=O)Cc1ccccc1 [KK-81]
remaining at 1 h, 0.315 mmol/L (Plasma stability assay): 88 ± 11%
Relative Binding to DOR (human DOR): 41%

CCCCCC(=O)N[C@@H](Cc1ccc(O)cc1)C(=O)NCC(=O)NCC(=O)N[C@@H](Cc1ccccc1)C(=O)N[C@@H](CC(C)C)C(=O)OC [KK-93]
remaining at 1 h, 0.315 mmol/L (Plasma stability assay): 85 ± 11%
Relative Binding to DOR (human DOR): 33%

COC(=O)[C@H](CC(C)C)NC(=O)[C@H](Cc1ccccc1)NC(=O)CNC(=O)CNC(=O)[C@H](Cc1ccc(O)cc1)NC(=O)C(C)(C)C [KK-102]
conversion in mouse plasma (deesterification of methyl ester) (Plasma stability assay): converting to KK-103; also recorded: rapidly deesterifies to KK-103
remaining at 1 h, 0.315 mmol/L (Plasma stability assay): 93 ± 1%
Relative Binding to DOR (human DOR; listed as KK-102/ KK-103): 68%

CC(C)C[C@H](NC(=O)[C@H](Cc1ccccc1)NC(=O)CNC(=O)CNC(=O)[C@H](Cc1ccc(O)cc1)NC(=O)C(C)(C)C)C(=O)O [KK-103]
respiration rate versus vehicle (female CD-1 mice [1]; 13 mg/kg, any time point between 30 and 240 min): comparable to that of mice treated with vehicle
breathing depression (female CD-1 mice [1]): did not induce breathing depression
inhibition of human liver microsome enzymes [2]: did not inhibit
tissue level at time at 2 h ([3]; brain, sc, read-out: concentration in brain): 200 ng/g
half-life ([3]; plasma, iv): 4.8 min
half-life ([3]; plasma, sc): 8.9 min
tissue level at time at 2 h ([3]; plasma, sc, read-out: concentration in plasma): 170000 ng/g
toxicity at the highest deliverable dose (female CD1 mice [4]): no toxicity
solubility [5]: 5000 µg/mL (≈ 7.82 mM)
physical dependence: withdrawal jumps after naloxone (female CD1 mice [6]): not a single jump was observed
stability in cerebrospinal fluid (CSF stability assay): almost no degradation
metabolised at 1 h [7]: < 10%
time stable in mouse plasma (Plasma stability assay): at least 5 h
half-life in mouse plasma (Plasma stability assay; extrapolated): 36 h
remaining at 1 h, 0.315 mmol/L (Plasma stability assay): 93%
half-life at 0.315 mmol/L (Plasma stability assay; mouse, plasma, extrapolated): 37 h
effect on locomotor activity (female CD-1 mice [8]): without effecting the locomotor activity
Relative Binding to DOR (human DOR): 65% and ~70%

CCCCCCCC(=O)N[C@@H](Cc1ccc(O)cc1)C(=O)NCC(=O)NCC(=O)N[C@@H](Cc1ccccc1)C(=O)N[C@@H](CC(C)C)C(=O)OC [KK-105]
remaining at 1 h, 0.315 mmol/L (Plasma stability assay): 80 ± 12%
Relative Binding to DOR (human DOR): 59%

C=CCCC(=O)N[C@@H](Cc1ccc(O)cc1)C(=O)NCC(=O)NCC(=O)N[C@@H](Cc1ccccc1)C(=O)N[C@@H](CC(C)C)C(=O)OC [KK-108]
remaining at 1 h, 0.315 mmol/L (Plasma stability assay): 73 ± 7%
Relative Binding to DOR (human DOR): 34%

COC(=O)[C@H](CC(C)C)NC(=O)[C@H](Cc1ccccc1)NC(=O)CNC(=O)CNC(=O)[C@H](Cc1ccc(O)cc1)NC(=O)C1CCCCC1 [KK-112]
remaining at 1 h, 0.315 mmol/L (Plasma stability assay): 62 ± 7%
Relative Binding to DOR (human DOR): 13%

CC(C)C[C@H](NC(=O)[C@H](Cc1ccccc1)NC(=O)CNC(=O)CNC(=O)[C@@H](N)Cc1ccc(O)cc1)C(=O)O [Leu-ENK, YGGFL, reference compound]
remaining at 1 h, 0.315 mmol/L (Plasma stability assay): 23 ± 3%

CN1CC[C@]23c4c5ccc(O)c4O[C@H]2[C@@H](O)C=C[C@H]3[C@H]1C5 [morphine]
decrease of respiratory rate compared with vehicle control (female CD-1 mice [1]; 10 mg/kg, 30 min post injection): 56%
breathing depression (female CD-1 mice [1]): significant reduction of breathing rate
physical dependence: withdrawal jumps after naloxone (female CD1 mice [6]): significant withdrawal syndromes
nociceptive response in phase 2, in words (female CD-1 mice [9]; 10 mg/kg, phase 2 (20-40 min)): completely diminished the nociceptive response
reduction of paw licking and biting time, phase 1 (0-5 min), compared to the control (female CD-1 mice [9]; morphine 10 mg/kg, KK-103 13 mg/kg): 30%
dose up to which safe to use (female CD1 mice [10]): up to 60 mg/kg
